# According to PMC12040169 (PLOS Biology, 2025):
# Test: in vitro
# Settings: human, hela cells, % viability
Compound,"viability at 28.5 h, 10 µM [%]","viability at 28.5 h, 10 µM (bulk resorufin, single well) [%]"
CCCCN(CC(N)=O)C(=O)c1sc(COc2ccc(Cl)cc2)nc1C [CBK304539],101,–
Oc1ccc2ccccc2c1/C=N/Nc1nc(NCc2ccccc2)nc(N2CCOCC2)n1 [CBK261233],93.8,–
Cn1nccc1C(=O)N[C@H]1CCC[C@@H](c2c[nH]c3ccccc23)C1 [CBK285073],93.6,–
Cc1ccc(CN2CC[C@H]3NC(=O)c4ccccc4OCC/C=C/C[C@H]3C2)cn1 [CBK292056],98.6,–
Cc1ccc(C2CCCN2C(=O)Cn2cc(C(=O)NCc3ccccc3)ccc2=O)cc1C (centres unmarked) [CBK286051],88.1,–
Cc1cccc(-c2ncc(NC(=O)CCOc3ccccc3)nc2-c2ccc(N)cc2)c1 [CBK036655],113,–
CCn1c(SCc2cccnc2)nc2c(c1=O)SC(C)C2 (centres unmarked) [CBK287643],87.7,–
O=C1CCC(C(=O)N2CCCC(c3cc4ccccc4cn3)C2)CC1 (centres unmarked) [CBK284989],102,–
COC(=O)c1ccc(-n2cc(-c3cccc(C(F)(F)F)c3)nn2)cc1 [CBK112936],90,–
COc1ccc(Oc2cncc(OC3CCN(Cc4ccc(Cl)c(Cl)c4)C3)n2)cc1OC (centres unmarked) [CBK084391],115,–
COc1ccc(C)cc1Nc1nc(N)nc(-c2oc3ccccc3c2C)n1 [CBK269026],107,–
CC1CN(C(=O)OC(C)(C)C)CCN1c1nc2ccccc2nc1O (centres unmarked) [CBK003877C],116,–
COc1ccc(-c2cc(C(=O)NC3CCCCC3C)c3ccccc3n2)cc1 (centres unmarked) [CBK294459],107,–
c1ccc2c(c1)CCN2c1ncnc2[nH]cnc12 [CBK291104],100,–
COc1cc(/C=N/NC(=O)c2n[nH]c3c2CCC3)ccc1O [CBK262881],109,–
Cc1nc(-c2ccccc2)c(CC(=O)NC2CCCOC2)s1 (centres unmarked) [CBK282586],93.4,–
CCOC(=O)CC1C(=O)NCCN1C/C=C\c1ccccc1OC (centres unmarked) [CBK269791],94.3,–
COc1cc(C=C2C(=O)NC(=S)NC2=O)cc(Br)c1OCc1c(C)no[n+]1[O-] [CBK263475],–,98.9
CC(C)(C)OC(=O)N1CCC(CNS(=O)(=O)c2cccs2)CC1 [CBK086019],100,–
COc1cccc(CC(=O)Nc2ccc3c(C)cc(C)nc3n2)c1 [CBK287992],74.1,–
COC(=O)c1c(NC(=O)Cn2ccc([N+](=O)[O-])n2)sc2c1CCCC2 [CBK268960],116,–
O=C(NCc1nc2ccccc2[nH]1)c1cnc(-c2ccc(Cl)cc2)c(-c2ccco2)c1 [CBK037555],106,–
CC(=O)N1CCc2c(nc(N(C)C)nc2NCCCOC(C)C)C1 [CBK306745],84.4,–

Compound,"viability at 28.5 h, 10 µM [%]","viability at 28.5 h, 10 µM (bulk resorufin, single well) [%]"
O=C(NC1CCCN(c2cc(-c3ccncc3)n[nH]2)C1)c1ccsc1 (centres unmarked) [CBK288619],104,–
Cc1nccn1CCNC(=O)CCc1nc2ccccc2n1C [CBK281978],95.3,–
CC1(C)CC(=O)c2sc(NC(=O)c3cncnc3)nc2C1 [CBK144107],101,–
Cc1nc(C)c(C(=O)NC(Cc2ccsc2)c2nccs2)s1 (centres unmarked) [CBK282822],82.3,–
Cc1cc2c(s1)c1cnn(CC(=O)NCC3CC3)c(=O)c1n2C [CBK284222],91.2,–
Cc1cc(C)nc(N(C#N)CC(=O)c2ccc(Br)cc2)n1 [CBK266562],91.3,–
CS(=O)(=O)N1CCN(c2ccccc2NC(=O)CSc2ccc(Cl)cc2)CC1 [CBK267607],83.7,–
Cc1ccc2cc(C(=O)N3CCCCC3CN3CCOCC3)[nH]c2c1 (centres unmarked) [CBK304374],90.4,–
Cn1nnc(NC(=O)COc2ccc(C3CCCCC3)cc2)n1 [CBK266442],95.9,–
Cc1nc2ccccc2nc1CSc1nnc(Cc2ccccc2)n1-c1ccccc1 [CBK268360],104,–
CCC1c2cccn2CCN1C(=O)c1cc(-c2ccccn2)n[nH]1 (centres unmarked) [CBK283224],102,–
Nc1ncc(-c2cncnc2)nc1NCC1CCOCC1 [CBK063877],98.1,–
Cc1nn(C)c(O)c1Cc1c(F)cccc1Cl [CBK067759],92.5,–
NC(=O)c1ccc(NC(=O)CSc2nnc(-c3ccncc3)n2-c2ccc(Br)cc2)cc1 [CBK266202],103,–
COc1ccccc1Cn1nc2nnc(-c3ccc(F)cc3)c(-c3ccc(F)cc3)n2c1=O [CBK286184],97.7,–
CC(C)n1nccc1C(=O)NCC(c1ccc(F)cc1)N1CCCC1 (centres unmarked) [CBK283025],87.3,–
Cc1cc(Sc2nc[nH]n2)c2c(Cl)ccc(Cl)c2n1 [CBK025959],109,–
CC(C)(C)C(=O)N1CCN(Cc2ccc3c(c2)OCO3)CC1 [CBK074842],88.8,–
Cc1cc(=O)n(CC(=O)NC(C)c2ccccn2)c2ccccc12 (centres unmarked) [CBK281820],96.3,–
CNC(=O)c1ccc(-c2ccco2)nc1N1CCOCC1 [CBK106212],108,–
O=S(=O)(c1ccc(-c2csc(-c3ccccc3)n2)cc1)N1CCCCCC1 [CBK265504],84.9,–
CC(=O)NC[C@H]1CN(c2ccc(C3=CC[S+]([O-])CC3)c(F)c2)C(=O)O1 (some centres unmarked) [CBK017555],92.5,–
O=C(c1cnc2ccccc2n1)N1CCc2ccccc21 [CBK200267],117,–

Compound,"viability at 28.5 h, 10 µM [%]","viability at 28.5 h, 10 µM (bulk resorufin, single well) [%]"
O=C(NC(=S)Nc1ccc(C(=O)O)c(Cl)c1)c1ccc(-c2ccc(Cl)cc2)o1 [CBK265063],105,–
COCCCn1c(SCc2csc(-c3ccc(C)cc3)n2)n[nH]c1=O [CBK295657],93.3,–
O=C(CSc1nc2ccccc2o1)N1c2ccccc2Sc2ccc(C(F)(F)F)cc21 [CBK018044],91.1,–
CC(C)NC(=O)Nc1ccccc1-c1ncn(C)n1 [CBK020922],95.6,–
O=C(O)C[C@]1(C(=O)NC2CCCCCC2)CC(/C=C/c2ccccc2)=NO1 [CBK286732],75.9,–
Cc1ccc(/C=C/C(=O)O)cc1S(=O)(=O)N(CCO)CCO [CBK264840],99,–
O=C(c1ccccc1)c1ccccc1-n1nccn1 [CBK013849],99,–
CS(=O)(=O)c1ccc(CN2C(=O)CC3(CCN(C(=O)c4ccc([N+](=O)[O-])cc4)CC3)C2=O)cc1 [CBK155019],99,–
N#Cc1cccc(OCC(=O)NCC2(N3CCOCC3)CCSC2)c1 (centres unmarked) [CBK305685],86.3,–
COc1ccccc1CN(CCCn1ccnc1)Cc1cccn1C [CBK283160],92.2,–
Nc1ncnc(NCCCn2ccnc2)c1[N+](=O)[O-] [CBK267312],93.5,–
CCN1CCN(Cc2nc3c(c(=O)n(C)c(=O)n3C)n2CCc2ccccc2)CC1 [CBK269547],110,–
Cc1nc(SCC(N)=O)nc(C)c1CCC(=O)NCc1ccc(F)cc1 [CBK295201],88.5,–
Cc1ccccc1Cc1cccc(C2CCN(CC(=O)Nc3nccs3)CC2)n1 [CBK286089],97.6,–
CC1CCN(S(=O)(=O)c2ccc(NC(=O)CN3CCOCC3)cc2)CC1 [CBK268339],81.4,–
Cn1cc(CCNC(=O)N2CCCN(Cc3cccs3)CC2)cn1 [CBK305393],89.1,–
Cc1ccc(S(=O)(=O)Nc2ccc(Nc3cc(-c4ccsc4)ncn3)cc2)cc1 [CBK037792],96.5,–
O=C(CN1C(=O)S/C(=C\c2ccc(OCc3ccccc3)cc2)C1=O)c1ccccc1 [CBK264636],95.1,–
CC1c2ccsc2CCN1C(=O)COc1ccc(Br)cc1 (centres unmarked) [CBK304999],98,–
Cc1cccc(C)c1NC(=O)CN1CCC(Oc2cncc(OCc3cccnc3)n2)C1 (centres unmarked) [CBK084460],87.6,–
O=C(Cn1cccc(C(=O)Nc2ccc(F)cc2)c1=O)Nc1nc2c(s1)CCCCC2 [CBK286055],84.7,–
COc1cccc(/C=C(/C#N)c2ccc(F)cc2)c1OCc1cccc(C(=O)O)c1 [CBK267993],102,–
Cc1nn(Cc2ccc(F)cc2)c(=O)c2cc3sccc3n12 [CBK284059],72.7,–

Compound,"viability at 28.5 h, 10 µM [%]","viability at 28.5 h, 10 µM (bulk resorufin, single well) [%]"
CCNC(=O)NC[C@@H]1C=C(C)[C@H](CC(=O)N2CCOCC2)C[C@H]1C(C)C [CBK289051],102,–
CC(=O)c1ccc(-c2cnc3[nH]c(=O)n(C4CCCCC4)c3n2)s1 [CBK064382],103,–
CC(C(=O)N1c2ccccc2Sc2ccccc21)N1C(=O)c2ccccc2C1=O (centres unmarked) [CBK018045],105,–
N#Cc1ccc(C(=O)Nc2nnc(C3=COCCO3)o2)cc1 [CBK287411],83.3,–
COc1ccc(CC(=O)Nc2nc(OC)cnc2/C=C\c2ccccc2)cc1 [CBK145224],98.7,–
Cc1ccc2cn[nH]c2c1 [CBK016109],123,–
CCNC(=O)N1CCN(CCOC(c2ccc(F)cc2)c2ccc(F)cc2)CC1 [CBK024943C],95.6,–
CS(=O)(=O)c1ccc(CN2CCC3(CCN(Cc4ccccc4)CC3)C2)cc1 [CBK144066T],92.2,–
Cn1c(=O)c2c(ncn2CC(=O)Nc2ccccc2C#N)n(C)c1=O [CBK133465],89.6,–
COc1cc(Nc2nc(-c3ccco3)cn3ccnc23)cc(OC)c1OC [CBK037413],95.2,–
CCOC(=O)NC(NCc1ccco1)(C(F)(F)F)C(F)(F)F [CBK057654],102,–
Cc1csc2ncnc(NCCc3ccccn3)c12 [CBK017060],67.1,–
Cn1ccnc1Sc1nc2ccccc2nc1C(F)(F)F [CBK093778],106,–
COc1cnc(-c2ccccc2)c(NC(C)=O)n1 [CBK145410],93.4,–
Cc1nn(C)c(C)c1NC(=O)COc1ccc(C#N)cc1 [CBK306011],87.5,–
Cc1cc2c(cc1C)C(O)CC1(CCN(C(=O)c3ccco3)CC1)O2 (centres unmarked) [CBK282839],84,–
O=C(O)Cn1nnnc1CN1CCc2ccccc2C1 [CBK287097],94.3,–
COc1cc(C(=O)NCc2ccc(-c3csnn3)cc2)cc(OC)c1OC [CBK149308],87,–
O=C(Cn1cnnn1)NCc1ccccc1 [CBK200255],83.6,–
CN1CCC[C@H]1C(=O)Nc1ccc2ncccc2c1 [CBK159825],95.7,–
